“And” between values parts separate entries of the source, which are not always exact repeats. Equal entries are not always repeated. Where two headings read alike, the source gives them in different places.
What was measured:
L. mexicana = system: L. mexicana; design: method as in doi:10.2174/1573407213666170405121810; conditions: pyridine compound of Figure 1A; read-out: IC50, leishmanicidal activity; cited from earlier work
Leishmania = system: Leishmania; design: method as in doi:10.1016/j.molstruc.2018.11.017; conditions: natural product scaffold of Figure 1B; read-out: IC50, leishmanicidal activity; cited from earlier work
[1] = Cytotoxicity assay, MTT method, 48 h; format: cell-based, murine; conditions: mouse, J774.2 macrophage cells, J774.2 cell line, read-out: Macrophage J774.2 CC50 (µM ± SD)
Protocol: (§1) A cytotoxicity assay was performed using the murine macrophage J774.2 cell line, which was recloned from the original ascites and solid tumor J774.1 (according to the manufacturer). The cells were cultured in RPMI medium supplemented with 10% SBF, 100 U […] penicillin, 100 µg/mL streptomycin, and glutamine (2 mM), and 5% CO2 atmosphere. The medium was changed every 2–3 days. Macrophages were used at 1 × 10^6 cells and were incubated with compounds at different concentrations (0.75–100 µM, respectively) at 37 °C for 48 h in a 5% CO2 atmosphere. DMSO was used as a negative control (0.2%). The metabolic activity of macrophages was determined by the MTT method. The percentage of cell viability was calculated, and the half-maximal cytotoxic concentration (CC50) was determined using probit analysis. Three independent assays were conducted in triplicate.

[2] = system: L. mexicana (MNYC/BZ/62/M379) (M379) promastigotes; assay: In vitro leishmanicidal activity, MTT method, 48 h; format: cell-based, Leishmania mexicana; conditions: for Selectivity Index L. mexicana M379: CC50 (J774.2)/IC50; for IC50: 48 h, read-out: L. mexicana IC50 (µM ± SD) M379; for IC50 / Leishmanicidal activity class in words, M379 strain: promastigotes, M379 strain; for Leishmanicidal activity class in words, M379 strain: classes by IC50
Protocol: (§2) To determine the leishmanicidal activity of pyridine-2,5-dicarboxylates, the parasites, in their logarithmic growth phase (5 × 10^5 parasites/mL), were cultured in 96-well microliter plates with the corresponding pyridine-2,5-dicarboxylate compound at different concentrations (0.78–100 µM). Compounds were dissolved in DMSO in a final volume of 200 µL for 48 h at 26 °C. Parasites treated with DMSO (0.2%) were used as a negative control, while treatments with Glucantime and Amphotericin B, at the same concentrations, were used as positive controls. The metabolic activity of the cells was determined using the 3-(4,5-Dimethylthiazol-2-yl)-2,5-diphenyltetrazolium bromide (MTT) method. IC50 was determined using probit analysis. Three independent experiments were performed in triplicate, and the data were analyzed for statistical significance (p < 0.05) using Biostat 5.3.0 software.

[3] = system: L. mexicana (MHOM/MX/2017/UABJO17FCQEPS) (FCQEPS) promastigotes; assay: In vitro leishmanicidal activity, MTT method, 48 h; format: cell-based, Leishmania mexicana; conditions: for Selectivity Index L. mexicana FCQEPS: CC50 (J774.2)/IC50; for IC50: 48 h, read-out: L. mexicana IC50 (µM ± SD) FCQEPS; for IC50 / Leishmanicidal activity class in words, FCQEPS strain: promastigotes, FCQEPS strain; for Leishmanicidal activity class in words, FCQEPS strain: classes by IC50
Protocol: as §2

[4] = system: T. cruzi (A1) epimastigotes; assay: In vitro trypanocidal activity, Alamar Blue assay, 48 h; format: cell-based, Trypanosoma cruzi; conditions: for Selectivity Index T. cruzi A1: CC50 (J774.2)/IC50; for IC50: Trypanosoma cruzi, 48 h, read-out: T. cruzi IC50 (µM ± SD) A1; for IC50 / Trypanocidal activity class in words, A1 strain: epimastigotes, A1 strain; for Trypanocidal activity class in words, A1 strain: classes by IC50
Protocol: (§3) Both strains were maintained in liver infusion tryptose (LIT) medium supplemented with 10% FBS and 0.1% penicillin-streptomycin. They were preserved by transferring 1 × 10^6 parasites/mL into a new culture medium every week. […] The metabolic activity was determined by the Alamar Blue assay. Briefly, after the incubation period, 20 µL of 2.5 mM resazurin solution was added to each well and incubated for 3 h. Three independent experiments were performed in triplicate. The half-maximum inhibitory concentration (IC50) was determined using probit analysis.

[5] = system: T. cruzi (NINOA) epimastigotes; assay: as above; format: cell-based, Trypanosoma cruzi; conditions: for Selectivity Index T. cruzi NINOA: CC50 (J774.2)/IC50; for IC50: 48 h, read-out: T. cruzi IC50 (µM ± SD) NINOA; for IC50 / Trypanocidal activity class in words, NINOA strain: epimastigotes, NINOA strain; for Trypanocidal activity class in words, NINOA strain: classes by IC50
Protocol: as §3

T. cruzi = conditions: read-out: IC50, trypanocidal activity, cited from earlier work
[6] = system: murine macrophage J774.2 cell line; assay: Cytotoxicity assay, MTT method, 48 h; format: cell-based; conditions: read-out: Macrophage J774.2 CC50 (µM ± SD)
Protocol: as §1

SMILES	CC50 at 48 h [1]	Selectivity Index L. mexicana M379 [2]	IC50 ([2]; Leishmania mexicana)	Selectivity Index L. mexicana FCQEPS [3]	IC50 ([3]; Leishmania mexicana)	Selectivity Index T. cruzi A1 [4]	IC50 [4]	Selectivity Index T. cruzi NINOA [5]	IC50 ([5]; Trypanosoma cruzi)	also measured
Cc1ccc(O)c(C(=O)c2cnc3[nH]nc(C)c3c2)c1 [Compound 7]	–	–	–	–	–	–	–	–	–	IC50 (L. mexicana): 31 µM
CC1=CC[C@H](C(C)(C)NC(=S)N/N=C/c2ccc([N+](=O)[O-])cc2)CC1 [Compound 8d]	–	–	–	–	–	–	–	–	–	IC50 (Leishmania): 2.4 µM
CCOC(=O)c1nc(C)c(C(=O)OCC23CC4CC(CC(C4)C2)C3)cc1-c1ccccc1 [Compound 10a]	> 200 µM	>2.4	≤ 162 µM	>1.2	≤ 162 µM	>4.3	46.9 µM	>1.9	105 µM	IC50 [2]: 82.19 ± 0.01 µM; IC50 [3]: 161.53 ± 0.03 µM; IC50 [5]: 105 ± 1.34 µM
CCOC(=O)c1nc(C)c(C(=O)OCC23CC4CC(CC(C4)C2)C3)cc1-c1ccc(C)cc1 [Compound 10b]	> 200 µM	>1	> 200 µM	>2.1	92.93 ± 0.02 µM	>1.8	111 ± 1.14 µM	–	< 26.4 µM	IC50 [5]: 20.98 ± 0.15 µM
CCOC(=O)c1nc(C)c(C(=O)OCC23CC4CC(CC(C4)C2)C3)cc1-c1ccc(F)cc1 [Compound 10c]	> 200 µM	>3.6	< 56 µM	>1	> 200 µM	>5.2	38.2 ± 2.86 µM	>4.0	50.6 ± 1.06 µM	IC50 [2]: 54.8 µM; Leishmanicidal activity class in words, FCQEPS strain [3]: abolished their leishmanicidal activity
Clc1ccc(-c2csc(N/N=C/c3ccccn3)n2)cc1Cl [Compound 11]	–	–	–	–	–	–	–	–	–	IC50 (T. cruzi; pyridine compound of Figure 1A): 4 µM
CCOC(=O)c1nc(C)c(C(=O)OCCC(C)CCC=C(C)C)cc1-c1ccccc1 (centres unmarked) [Compound 11a]	119 ± 7.3 µM	–	> 200 µM	1.6	73 ± 1.78 µM	–	> 200 µM	–	> 200 µM	Leishmanicidal activity class in words, M379 strain [2]: did not have antiparasitic activity; Trypanocidal activity class in words, NINOA strain [5]: inactive
CCOC(=O)c1nc(C)c(C(=O)OCCC(C)CCC=C(C)C)cc1-c1ccc(C)cc1 (centres unmarked) [Compound 11b]	169 µM	–	> 200 µM	–	> 200 µM	3.3	51.6 ± 0.59 µM	–	> 200 µM	CC50 [6]: 169.8 ± 1.3 µM; Leishmanicidal activity class in words, M379 strain [2]: did not have antiparasitic activity; Trypanocidal activity class in words, NINOA strain [5]: inactive
CCOC(=O)c1nc(C)c(C(=O)OCCC(C)CCC=C(C)C)cc1-c1ccc(F)cc1 (centres unmarked) [Compound 11c]	> 200 µM	>1	> 200 µM	>1	> 200 µM	>8.0	24.9 ± 4.1 µM	>2.5	79.9 ± 2.6 µM	Leishmanicidal activity class in words, M379 strain [2]: inactive; Leishmanicidal activity class in words, FCQEPS strain [3]: abolished their leishmanicidal activity
CCOC(=O)c1nc(C)c(C(=O)OC/C=C(\C)CCC=C(C)C)cc1-c1ccccc1 [Compound 12a]	25 ± 0.8 µM	–	> 200 µM	0.3	75.3 ± 4.28 µM	0.2	117.8 ± 0.94 µM	0.2	106 ± 1.43 µM	Leishmanicidal activity class in words, M379 strain [2]: did not have antiparasitic activity; Trypanocidal activity class in words, A1 strain [4]: slight activity; Trypanocidal activity class in words, NINOA strain [5]: slight trypanocidal activity
CCOC(=O)c1nc(C)c(C(=O)OC/C=C(\C)CCC=C(C)C)cc1-c1ccc(C)cc1 [Compound 12b, (E)-5-(3,7-Dimethylocta-2,6-dien-1-yl) 2-ethyl 6-methyl-3-(p-tolyl)pyridine-2,5-dicarboxylate]	> 200 µM	>3.6	–	>3.5	–	>1	> 200 µM	>1	> 200 µM	Trypanocidal activity class in words, A1 strain [4]: completely lose their trypanocidal activity
CCOC(=O)c1nc(C)c(C(=O)OC/C=C(\C)CCC=C(C)C)cc1-c1ccc(F)cc1 [Compound 12c]	> 200 µM	>2.3	85.98 ± 0.02 µM	>1.7	114 ± 7.03 µM	>4.0	50.1 ± 1 µM	>4.1	49.1 ± 2.5 µM	–
CNC[C@H](O)[C@@H](O)[C@H](O)[C@H](O)CO.[O]=[Sb](=[O])[OH] [Glc, Glucantime, reference compound]	–	2.0	–	2.2	–	–	–	–	–	CC50 [6]: 273 µM; Selectivity Index L. mexicana M379 ([2]; listed as Glucantime): 2.03; IC50 ([2]; listed as Glucantime): 134 µM and > 125 µM; IC50 [2]: 134 ± 4.32 µM; Selectivity Index L. mexicana FCQEPS ([3]; listed as Glucantime): 2.18 and 2; IC50 ([3]; listed as Glucantime): > 125 µM; IC50 [3]: 125 ± 11.6 µM
CC1=CC[C@@H](C(C)(C)Nc2nnc(-c3ccc(C)cc3)s2)CC1 [TDZ 2]	–	–	–	–	–	–	–	–	–	IC50 (T. cruzi; natural product scaffold of Figure 1B): 1.3 µM

Source: publication PMC12566703, “Design, Synthesis, In Vitro and In Silico Biological Evaluation of New Pyridine-2,5-Dicarboxylates Esters Bearing Natural Source Fragments as Anti-Trypanosomatid Agents” (Pharmaceutics, 2025)
